This note sets out measurements from ChEMBL document CHEMBL1149724, “Nakahalene and Cytotoxic principles of Formosan Rhamnus Species” (1992).

Test [1] relates to KB. The experiment in a line: Cytotoxicity against human KB cells. Type of test: functional. The conditions noted are these: read-out: ED50 (the source's name).
Test [2] is described as follows: Cytotoxicity against human PLC/PRF/5 cells. Type of test: functional. The settings on record: read-out: ED50 (the source's name).

The structures appear in SMILES notation. ≈ marks a conversion by molar mass, not a printed value.

`Cc1cc(O)c2c(c1)C(=O)c1cccc(O)c1C2=O` [CHRYSOPHANOL]: the EC50 in test [1] turned out to be 5.68 µg/mL (≈ 22.3 µM); in test [2], 3.23 µg/mL (≈ 12.7 µM).
On the same counts, the results for `Cc1cc(O)c2c(c1)C(=O)c1cc(O)cc(O)c1C2=O` [EMODIN] are 3.46 µg/mL (≈ 12.8 µM) and 5.91 µg/mL (≈ 21.9 µM).
On the same counts, the results for `Cc1cc(O)c2c(c1)C(=O)c1cc(O[C@@H]3OC[C@](O)(CO)[C@H]3O)cc(O)c1C2=O` [FRANGULIN B] are 2.49 µg/mL (≈ 6.19 µM) and 0.8 µg/mL (≈ 1.99 µM).
The corresponding values for `COc1cc(O)c2c(c1)C(=O)c1cc(C)cc(O)c1C2=O` [PHYSCION] are 1.55 µg/mL (≈ 5.45 µM) and 1.44 µg/mL (≈ 5.07 µM).
